From ChEMBL document CHEMBL3994568 (2016)
Values after ≈ are worked out from the molar mass of the structure shown. Active and inactive are the calls of the source. The rule behind the calls is not given here.

Columns and labels:
HEp-2 = test: Cytotoxicity against human Hep2 cells assessed as cell viability up to 125 ug/ml after 24 hrs by CCK8 assay relative to control; assay type: functional
Micrococcus luteus = test: Antibacterial activity against Micrococcus luteus ATCC 4698 after 24 hrs by two-fold microbroth dilution method; assay type: functional; settings: NCTC 2665, 24 h
Staphylococcus aureus [1] = test: Antibacterial activity against methicillin-resistant Staphylococcus aureus N315 after 24 hrs by two-fold microbroth dilution method; assay type: functional; settings: N315, 24 h
Pseudomonas aeruginosa [2] = test: Antibacterial activity against Pseudomonas aeruginosa ATCC 27853 after 24 hrs by two-fold microbroth dilution method; assay type: functional; settings: ATCC 27853, 24 h
Staphylococcus aureus [3] = test: Antibacterial activity against Staphylococcus aureus ATCC 25923 after 24 hrs by two-fold microbroth dilution method; assay type: functional; settings: ATCC 25923, 24 h
Saccharomyces cerevisiae = test: Antifungal activity against Saccharomyces cerevisiae ATCC 9763 after 24 hrs by two-fold microbroth dilution method; assay type: functional; settings: ATCC 9763, 24 h
Candida albicans = test: Antifungal activity against Candida albicans ATCC 10231 after 24 hrs by two-fold microbroth dilution method; assay type: functional; settings: ATCC 10231, 24 h
Escherichia coli = test: Antibacterial activity against Escherichia coli JM109 after 24 hrs by two-fold microbroth dilution method; assay type: functional; settings: JM109, 24 h
Pichia norvegensis = test: Antifungal activity against Candida mycoderma ATCC 9888 after 24 hrs by two-fold microbroth dilution method; assay type: functional; settings: ATCC 9888, 24 h
Cyberlindnera jadinii = test: Antifungal activity against Candida utilis ATCC 9950 after 24 hrs by two-fold microbroth dilution method; assay type: functional; settings: Williopsis jadinii, ATCC 9950, 24 h
Pseudomonas aeruginosa [4] = test: Potency index, ratio of chloromycin MIC to compound MIC for Pseudomonas aeruginosa ATCC 27853; assay type: functional
Bacillus = test: Antibacterial activity against Bacillus proteus ATCC 13315 after 24 hrs by two-fold microbroth dilution method; assay type: functional; settings: ATCC 13315, 24 h
[5] = Antibacterial activity against Eberthella typhosa ATCC 14028 after 24 hrs by two-fold microbroth dilution method; assay type: functional; settings: ATCC 14028, 24 h
Bacillus spizizenii = test: Antibacterial activity against Bacillus subtilis ATCC 6633 after 24 hrs by two-fold microbroth dilution method; assay type: functional; settings: ATCC 6633, 24 h
Aspergillus flavus = test: Antifungal activity against Aspergillus flavus ATCC 204304 after 24 hrs by two-fold microbroth dilution method; assay type: functional; settings: ATCC 204304, 24 h
Staphylococcus aureus [6] = test: Potency index, ratio of chloromycin MIC to compound MIC for methicillin-resistant Staphylococcus aureus N315; assay type: functional
Staphylococcus aureus [7] = test: Potency index, ratio of norfloxacin MIC to compound MIC for methicillin-resistant Staphylococcus aureus N315; assay type: functional
Bos taurus [8] = organism: Bos taurus; test: Binding affinity to calf thymus DNA assessed as hypochromic effect by UV-vis absorption spectra analysis
Bos taurus [9] = organism: Bos taurus; test: Binding affinity to calf thymus DNA by UV-vis absorption spectra analysis
Bos taurus [10] = organism: Bos taurus; test: Induction of calf thymus DNA intercalation assessed as compound-DNA complex formation at 5 x 10^-5mol/L by fluorescence spectroscopic method
Bos taurus [11] = organism: Bos taurus; test: Induction of calf thymus DNA intercalation assessed as inhibition of neutral red binding to DNA by UV-vis absorption spectra analysis

Compound | MIC (Micrococcus luteus) [µg/mL] | MIC (Staphylococcus aureus [1]) [µg/mL] | MIC (Pseudomonas aeruginosa [2]) [µg/mL] | MIC (Staphylococcus aureus [3]) [µg/mL] | MIC (Saccharomyces cerevisiae) [µg/mL] | MIC (Candida albicans) [µg/mL] | MIC (Escherichia coli) [µg/mL] | MIC (Pichia norvegensis) [µg/mL] | MIC (Cyberlindnera jadinii) [µg/mL] | MIC (Bacillus) [µg/mL] | MIC [5] [µg/mL] | MIC (Bacillus spizizenii) [µg/mL] | MIC (Aspergillus flavus) [µg/mL] | other results
CCCCCn1c2ccc(-c3csc(N)n3)cc2c2cc(-c3csc(N)n3)ccc21 | 64 (≈ 148 µM) | 128 (≈ 295 µM) | 2 (≈ 4.61 µM) | 64 (≈ 148 µM) | 128 (≈ 295 µM) | 128 (≈ 295 µM) | 256 (≈ 590 µM) | 64 (≈ 148 µM) | 128 (≈ 295 µM) | 256 (≈ 590 µM) | 128 (≈ 295 µM) | 256 (≈ 590 µM) | 256 (≈ 590 µM) | Activity (HEp-2): 85%; Ratio (Pseudomonas aeruginosa [4]): 8
CCCCCCn1c2ccc(-c3csc(N)n3)cc2c2cc(-c3csc(N)n3)ccc21 | 256 (≈ 572 µM) | 64 (≈ 143 µM) | 32 (≈ 71.5 µM) | 32 (≈ 71.5 µM) | 256 (≈ 572 µM) | 256 (≈ 572 µM) | 128 (≈ 286 µM) | 128 (≈ 286 µM) | 256 (≈ 572 µM) | 256 (≈ 572 µM) | 256 (≈ 572 µM) | 512 (≈ 1140 µM) | 512 (≈ 1140 µM) | –
CCCCCCCCn1c2ccc(-c3csc(N)n3)cc2c2cc(-c3csc(N)n3)ccc21 | 512 (≈ 1080 µM) | 32 (≈ 67.3 µM) | 512 (≈ 1080 µM) | 64 (≈ 135 µM) | 512 (≈ 1080 µM) | 512 (≈ 1080 µM) | 512 (≈ 1080 µM) | 512 (≈ 1080 µM) | 512 (≈ 1080 µM) | 128 (≈ 269 µM) | 512 (≈ 1080 µM) | 512 (≈ 1080 µM) | 256 (≈ 538 µM) | –
CCCCCCCCCCCCCCCCCCn1c2ccc(-c3csc(N)n3)cc2c2cc(-c3csc(N)n3)ccc21 | 512 (≈ 831 µM) | 512 (≈ 831 µM) | 512 (≈ 831 µM) | 256 (≈ 416 µM) | 256 (≈ 416 µM) | 256 (≈ 416 µM) | 128 (≈ 208 µM) | 512 (≈ 831 µM) | 256 (≈ 416 µM) | 256 (≈ 416 µM) | 256 (≈ 416 µM) | 256 (≈ 416 µM) | 256 (≈ 416 µM) | –
CCCCn1c2ccc(-c3csc(N)n3)cc2c2cc(-c3csc(N)n3)ccc21 | 128 (≈ 305 µM) | 256 (≈ 610 µM) | 64 (≈ 153 µM) | 128 (≈ 305 µM) | 128 (≈ 305 µM) | 128 (≈ 305 µM) | 128 (≈ 305 µM) | 64 (≈ 153 µM) | 256 (≈ 610 µM) | 128 (≈ 305 µM) | 128 (≈ 305 µM) | 256 (≈ 610 µM) | 256 (≈ 610 µM) | –
CCCCCCCn1c2ccc(-c3csc(N)n3)cc2c2cc(-c3csc(N)n3)ccc21 | 64 (≈ 139 µM) | 4 (≈ 8.66 µM) | 128 (≈ 277 µM) | 16 (≈ 34.7 µM) | 128 (≈ 277 µM) | 128 (≈ 277 µM) | 128 (≈ 277 µM) | 64 (≈ 139 µM) | 256 (≈ 555 µM) | 256 (≈ 555 µM) | 128 (≈ 277 µM) | 256 (≈ 555 µM) | 256 (≈ 555 µM) | Ratio (Staphylococcus aureus [6]): 16; Activity (HEp-2): 85%; Ratio (Staphylococcus aureus [7]): 2; Activity (Bos taurus [8]): Dose-dependent effect; K (Bos taurus [9]): 2.71 ×10⁴ L/mol; Activity (Bos taurus [10]): Active; inhibition (Bos taurus [11]): Dose-dependent effect
CCCCCCCn1c2ccc(C(=O)CCl)cc2c2cc(C(=O)CCl)ccc21 | 512 (≈ 1220 µM) | 512 (≈ 1220 µM) | 512 (≈ 1220 µM) | 512 (≈ 1220 µM) | 512 (≈ 1220 µM) | 512 (≈ 1220 µM) | 512 (≈ 1220 µM) | 256 (≈ 612 µM) | 512 (≈ 1220 µM) | 512 (≈ 1220 µM) | 512 (≈ 1220 µM) | 512 (≈ 1220 µM) | 512 (≈ 1220 µM) | –
CCCCCCn1c2ccc(C(=O)CCl)cc2c2cc(C(=O)CCl)ccc21 | 256 (≈ 633 µM) | 512 (≈ 1270 µM) | 16 (≈ 39.6 µM) | 512 (≈ 1270 µM) | 512 (≈ 1270 µM) | 512 (≈ 1270 µM) | 512 (≈ 1270 µM) | 256 (≈ 633 µM) | 256 (≈ 633 µM) | 16 (≈ 39.6 µM) | 256 (≈ 633 µM) | 512 (≈ 1270 µM) | 512 (≈ 1270 µM) | –
CCn1c2ccc(-c3csc(N)n3)cc2c2cc(-c3csc(N)n3)ccc21 | 128 (≈ 327 µM) | 512 (≈ 1310 µM) | 256 (≈ 654 µM) | 256 (≈ 654 µM) | 256 (≈ 654 µM) | 64 (≈ 163 µM) | 128 (≈ 327 µM) | 64 (≈ 163 µM) | 128 (≈ 327 µM) | 256 (≈ 654 µM) | 256 (≈ 654 µM) | 256 (≈ 654 µM) | 256 (≈ 654 µM) | –
